{
  "source": "ChEMBL document CHEMBL1629630",
  "about": "“Inhibition of inositol phosphorylceramide synthase by the cyclic peptide aureobasidin A” (Antimicrob Agents Chemother, 2009)",
  "key": {"[1]": {"molecular_target": "T1, Inositol phosphorylceramide synthase (Candida albicans (strain SC5314 / ATCC MYA-2876) (Yeast), UniProt O13332)", "T1 sequence (O13332 whole entry)": "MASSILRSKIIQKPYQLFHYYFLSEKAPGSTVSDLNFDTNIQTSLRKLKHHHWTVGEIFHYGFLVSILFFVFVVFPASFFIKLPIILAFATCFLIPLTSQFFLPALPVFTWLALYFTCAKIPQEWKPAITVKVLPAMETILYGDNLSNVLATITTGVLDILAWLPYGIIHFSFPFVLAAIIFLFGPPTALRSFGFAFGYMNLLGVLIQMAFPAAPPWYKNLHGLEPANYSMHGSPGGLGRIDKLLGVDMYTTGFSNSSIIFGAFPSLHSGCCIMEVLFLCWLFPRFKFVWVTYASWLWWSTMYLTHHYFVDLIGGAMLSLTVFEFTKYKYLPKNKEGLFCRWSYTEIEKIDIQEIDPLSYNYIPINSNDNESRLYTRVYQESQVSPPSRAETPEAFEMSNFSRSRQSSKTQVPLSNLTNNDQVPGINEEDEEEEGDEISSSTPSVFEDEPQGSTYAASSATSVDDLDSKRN", "description": "(§1) Inhibition of Candida albicans ATCC 38247 inositol phosphorylceramide synthase preincubated for 30 mins"}, "[2]": {"molecular_target": "T2, Inositol phosphorylceramide synthase (Candida albicans (strain SC5314 / ATCC MYA-2876) (Yeast)) (UniProt O13332)", "T2 sequence (whole entry)": "T1 sequence (O13332 whole entry)", "assay": "Inhibition of Candida albicans ATCC 38247 inositol phosphorylceramide synthase", "details": "TDE = time-dependent effect"}, "[3]": {"molecular_target": "T3, Inositol phosphorylceramide synthase catalytic subunit AUR1 (Saccharomyces cerevisiae S288c, UniProt P36107)", "T3 sequence (P36107 whole entry)": "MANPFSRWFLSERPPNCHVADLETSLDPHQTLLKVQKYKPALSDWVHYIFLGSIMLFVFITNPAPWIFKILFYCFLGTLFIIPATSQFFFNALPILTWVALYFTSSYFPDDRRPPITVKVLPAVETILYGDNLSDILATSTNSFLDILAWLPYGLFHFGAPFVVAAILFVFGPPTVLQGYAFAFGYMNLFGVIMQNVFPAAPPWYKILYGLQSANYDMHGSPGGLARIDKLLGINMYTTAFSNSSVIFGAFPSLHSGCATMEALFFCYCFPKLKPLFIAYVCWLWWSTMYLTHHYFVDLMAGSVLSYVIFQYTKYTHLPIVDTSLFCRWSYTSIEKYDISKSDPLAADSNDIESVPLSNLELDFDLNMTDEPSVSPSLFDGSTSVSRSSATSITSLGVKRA", "assay": "Inhibition of Saccharomyces cerevisiae SJ21R inositol phosphorylceramide synthase preincubated for 30 mins"}, "[4]": {"molecular_target": "Inositol phosphorylceramide synthase catalytic subunit AUR1 (Saccharomyces cerevisiae S288c, UniProt P36107)", "assay": "Inhibition of aureobasidin A-resistant Saccharomyces cerevisiae inositol phosphorylceramide synthase preincubated for 30 mins"}, "[5]": {"molecular_target": "T1, Inositol phosphorylceramide synthase", "assay": "Inhibition of Candida albicans inositol phosphorylceramide synthase"}, "[6]": {"molecular_target": "T3, Inositol phosphorylceramide synthase catalytic subunit AUR1", "assay": "Inhibition of Saccharomyces cerevisiae inositol phosphorylceramide synthase"}, "[7]": {"molecular_target": "T4, Aureobasidin-resistance protein (Neosartorya fumigata (Aspergillus fumigatus), UniProt Q9Y745)", "T4 sequence (Q9Y745 whole entry)": "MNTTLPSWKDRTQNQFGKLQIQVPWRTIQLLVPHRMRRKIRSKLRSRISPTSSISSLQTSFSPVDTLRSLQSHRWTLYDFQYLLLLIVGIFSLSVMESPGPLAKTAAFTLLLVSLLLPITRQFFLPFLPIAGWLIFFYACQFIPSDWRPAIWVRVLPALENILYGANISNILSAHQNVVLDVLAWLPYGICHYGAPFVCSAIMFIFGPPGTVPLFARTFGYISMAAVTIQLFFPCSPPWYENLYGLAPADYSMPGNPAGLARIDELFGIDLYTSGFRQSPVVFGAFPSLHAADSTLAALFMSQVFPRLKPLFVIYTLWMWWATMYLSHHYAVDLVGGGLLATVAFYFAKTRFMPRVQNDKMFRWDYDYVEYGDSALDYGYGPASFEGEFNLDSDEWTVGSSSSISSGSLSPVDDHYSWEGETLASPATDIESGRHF", "assay": "Inhibition of Aspergillus fumigatus inositol phosphorylceramide synthase"}, "[8]": {"molecular_target": "T2, Inositol phosphorylceramide synthase (Candida albicans (strain SC5314 / ATCC MYA-2876) (Yeast))", "assay": "Irreversible inhibition of Candida albicans ATCC 38247 inositol phosphorylceramide synthase"}, "[9]": {"molecular_target": "T2, Inositol phosphorylceramide synthase (Candida albicans (strain SC5314 / ATCC MYA-2876) (Yeast))", "details": "ATCC 38247", "description": "as §1"}, "[10]": {"molecular_target": "T1, Inositol phosphorylceramide synthase", "assay": "Reversible inhibition of Candida albicans inositol phosphorylceramide synthase"}, "[11]": {"molecular_target": "T3, Inositol phosphorylceramide synthase catalytic subunit AUR1", "assay": "Reversible inhibition of Saccharomyces cerevisiae inositol phosphorylceramide synthase"}},
  "note": "Where “and” joins values, the source holds several entries; their conditions need not be identical. Equal values may be shown once. Calls of active or inactive are those of the source. No cut-off for these calls is given here. Numbered stars: 1 amine (or outer) side, 2 acyl side, 3 side chain; on linkers, the order of the positions; unused ones are H or OH. Square brackets hold non-standard residues; d marks the D form. Peptide text beside a SMILES is read from it. X1 = CC[C@@H](C)[C@@H](O[*:1])C(=O)[*:2]; NMeVal(β-OH) = CN[C@H](C(=O)O)C(C)(C)O; NMeF = CN[C@@H](Cc1ccccc1)C(=O)O; aIle = CC[C@@H](C)[C@H](N)C(=O)O; NMeV = CN[C@H](C(=O)O)C(C)C",
  "data": [
    {"smiles": "CCCCCCCCC(=O)N(C)C(C(=O)O[C@@H](C(=O)N(C)CCc1ccc(OC)c(OC)c1)c1ccccc1)C(C)(C)O", "note": "(stereo partly drawn)", "values": [
      {"measurement": "Ki", "setting": "[1]", "result": 11800, "unit": "nM"}
    ]},
    {"smiles": "COc1ccc(CCN(C)C(=O)[C@H](OC(=O)C(N(C)C(=O)CCCCCc2ccccc2)C(C)(C)O)c2ccccc2)cc1OC", "note": "(stereo partly drawn)", "values": [
      {"measurement": "Ki", "setting": "[1]", "result": 10500, "unit": "nM"}
    ]},
    {"smiles": "CCCC(CCC)C(=O)N(C)C(C(=O)O[C@@H](C(=O)N(C)CCc1ccc(OC)c(OC)c1)c1ccccc1)C(C)(C)O", "note": "(stereo partly drawn)", "values": [
      {"measurement": "Ki", "setting": "[1]", "result": 7900, "unit": "nM"}
    ]},
    {"smiles": "CC[C@@H](C)[C@@H]1NC(=O)[C@@H]2CCCN2C(=O)[C@H](Cc2ccccc2)N(C)C(=O)[C@H](Cc2ccccc2)NC(=O)[C@H](C(C)C)N(C)C(=O)[C@@H]([C@H](C)CC)OC(=O)[C@H](C(C)(C)O)N(C)C(=O)[C@H](CC(C)C)NC(=O)[C@H](C(C)C)N(C)C1=O", "note": "[AUREOBASIDIN A] (cyclo(F[NMeF]P[aIle][NMeV]L[NMeVal(β-OH)][X1][NMeV]))", "values": [
      {"measurement": "inhibition", "setting": "[2]", "result": "tde"},
      {"measurement": "Ki", "setting": "[3]", "result": 0.23, "unit": "nM"},
      {"measurement": "Ki", "setting": "[4]", "result": 1400, "unit": "nM"},
      {"measurement": "IC50", "setting": "[5]", "result": 0.2, "unit": "nM"},
      {"measurement": "Ki", "setting": "[5]", "result": 0.55, "unit": "nM"},
      {"measurement": "IC50", "setting": "[6]", "result": 0.2, "unit": "nM"},
      {"measurement": "IC50", "setting": "[7]", "result": 0.2, "unit": "nM"},
      {"measurement": "inhibition", "setting": "[8]", "result": "Active"},
      {"measurement": "Ki", "setting": "[1]", "result": 0.18, "unit": "nM"},
      {"measurement": "Kinact", "setting": "[9]", "result": "2.5 /us and 1.8 /us"}
    ]},
    {"smiles": "CCCCCCCCCC[C@H](C)[C@@H](O)[C@@H](C)/C=C(C)/C=C(\\C)C(=O)[C@H](C)/C=C(\\C)C(=O)O[C@H](CO)[C@@H](O)[C@H](O)C(=O)O", "note": "[KHAFREFUNGIN]", "values": [
      {"measurement": "inhibition", "setting": "[2]", "result": "tde"},
      {"measurement": "IC50", "setting": "[3]", "result": 43, "unit": "nM"},
      {"measurement": "IC50", "setting": "[4]", "result": 11300, "unit": "nM"},
      {"measurement": "IC50", "setting": "[5]", "result": 0.6, "unit": "nM"},
      {"measurement": "Ki", "setting": "[1]", "result": 0.43, "unit": "nM"}
    ]},
    {"smiles": "C=C1/C=C(\\C)[C@H](CC)CC(=O)[C@H](C)C(=O)[C@@](O)(CO)C/C(OC)=C/[C@@H](C)C1", "note": "[RUSTMICIN]", "values": [
      {"measurement": "IC50", "setting": "[3]", "result": 13, "unit": "nM"},
      {"measurement": "IC50", "setting": "[4]", "result": 27200, "unit": "nM"},
      {"measurement": "IC50", "setting": "[10]", "result": 3.8, "unit": "nM"},
      {"measurement": "IC50", "setting": "[11]", "result": 3.8, "unit": "nM"},
      {"measurement": "Ki", "setting": "[1]", "result": 16, "unit": "nM"}
    ]}
  ]
}
